In US12630564B2, “Internal cyclic sulphiamidine amide-aryl amide compound and use thereof for treating hepatitis B” (SHANGHAI LONGWOOD BIOPHARMACEUTICALS CO., LTD., priority 2019, dated 2026):

How the values were obtained:
Assay type in all cases: cell-based
[1] = test system: HBV DNA in the supernatant of HepG2.2.15; assay: Determination of anti-HBV activity in HepG2.2.15 cell, HBV DNA in supernatant by qPCR (Experiment 2); conditions: Hepatitis B virus, HepG2.2.15, HepG2.2.15 cells
Description: Experiment 2: Determination of Anti-HBV Activity in HepG2.2.15 Cell
• QIAamp 96 DNA Blood Kit (12) (Qiagen, Item No. 51162); • FastStart Universal Probe Master (Roche, Item No. 04914058001); • Cell-titer Glo Testing Reagent (Promega, Item No. G7573).
Compound dilution: all the compounds for in vitro anti-HBV activity assay and cytotoxicity assay were 3-fold diluted into 8 concentrations. The final starting concentration of the tested compound was 30 μM, the final starting concentration of reference compound GLS4 was 1 μM, and the final concentration of DMSO was 0.5%.
HepG2.2.15 cells (4×10^4 cells/well) was inoculated into 96-well plates and cultured overnight at 37° C., 5% CO2. On the second day, fresh culture medium containing different concentrations of compounds was added into the culture wells. On the fifth day, the old culture solution in the culture well was aspirated and fresh culture medium containing different concentrations of the compound was added.
On the eighth day, the supernatant in the culture well was collected for extraction of HBV DNA, and the content of HBV DNA in the supernatant of HepG2.2.15 was detected by qPCR. After the supernatant was collected, the medium and Cell-titer Glo reagent were added into the culture well, and the chemiluminescence value of each well was measured by microplate reader.
The activity calculation formula was as follows: Y=Bottom+(Top−Bottom)/(1+10^((Log IC50−X)*HillSlope)); • wherein, • X represents the logarithm of the concentration, Y represents the effect value, and Y starts from the bottom and fits to the top by S type fitting.
Bottom represents the bottom of the curve;
Top represents the top of the curve;
HillSlope represents the absolute value of the maximum slope of the curve.

[2] = Determination of cytotoxicity, HepG2 cells, resazurin assay (Experiment 3); conditions: human
Description: (§1) Experiment 3: Determination of Cytotoxicity
(§2) The cytotoxicity of the test compound was tested using HepG2 cells. The cells were incubated for 4 days in the presence of the test compound. Cell activity was assessed using the resazurin assay.

HepG2 cells = assay: as above; conditions: 4 days
Description: as §1, §2

SMILES	EC50 [1] [nM]	CC50 at 4 days [2] [nM]	CC50 (HepG2 cells) [nM]
Cn1cc2c(c1C(=O)Nc1ccc(F)c(C#N)c1)C=C[C@H](C1CC1)NS2(=N)=O (single isomer, unassigned) [Compound 100a04]	0.1 to 100	> 30000	–
Cn1cc2c(c1C(=O)Nc1ccc(F)c(C#N)c1)C=C[C@H](CC1CC1)NS2(=N)=O (single isomer, unassigned) [Compound 100b04]	0.1 to 100	> 30000	–
Cn1cc2c(c1C(=O)Nc1ccc(F)c(C#N)c1)C=C[C@H](Cc1ccc(F)cc1)NS2(=N)=O (single isomer, unassigned) [Compound 100c04]	0.1 to 100	> 30000	–
CC(C)[C@H]1C=Cc2c(cn(C)c2C(=O)Nc2ccc(F)c(C#N)c2)S(=N)(=O)N1 (single isomer, unassigned) [Compound 10b2]	–	–	> 30000
Cn1cc2c(c1C(=O)Nc1ccc(F)c(C#N)c1)CC[C@H](Cc1ccc(F)cc1)NS2(=N)=O (single isomer, unassigned) [Compound 100c02]	0.1 to 100	> 30000	–
Cn1cc2c(c1C(=O)Nc1ccc(F)c(C#N)c1)CC[C@H](C1CC1)NS2(=N)=O (single isomer, unassigned) [Compound 100a02]	–	–	> 30000
Cn1cc2c(c1C(=O)Nc1ccc(F)c(C#N)c1)CC[C@H](CC1CC1)NS2(=N)=O (single isomer, unassigned) [Compound 100b02]	0.1 to 100	> 30000	–
Cn1cc2c(c1C(=O)Nc1ccc(F)c(C#N)c1)CC[C@H](C1CC1)NS2(=N)=O (single isomer, unassigned) [Compound 100a01]	–	> 30000	–
COc1ccc(C[C@H]2C=Cc3c(cn(C)c3C(=O)Nc3ccc(F)c(C#N)c3)S(=N)(=O)N2)cc1 (single isomer, unassigned) [Compound 100c16]	0.1 to 100	> 30000	–
COc1ccc(C[C@H]2CCc3c(cn(C)c3C(=O)Nc3ccc(F)c(C#N)c3)S(=N)(=O)N2)cc1 (single isomer, unassigned) [Compound 100c14]	0.1 to 100	> 30000	–
CC(C)[C@@H]1C=Cc2c(cn(C)c2C(=O)Nc2ccc(F)c(C#N)c2)S(=N)(=O)N1 (single isomer, unassigned) [Compound 10h2]	–	–	> 30000
